# Source: the supplement of paper PMC10307832
# How the values were obtained:
# Experiment in all cases: relative viability (nuclei count vs DMSO), 5 days (fraction); higher = more cells survive
# Erlotinib + Decitabine = compound: C#Cc1cccc(Nc2ncnc3cc(OCCOC)c(OCCOC)cc23)c1 [Erlotinib] + Nc1ncn([C@H]2C[C@H](O)[C@@H](CO)O2)c(=O)n1 [Decitabine] (partner 2 µM)
# How it was run: (§1)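 Medians of duplicate plates are given as relative viability. That measure is the nuclei count in treated wells divided by the count in vehicle wells. Counts were taken on 4× images of lung cancer cell lines in 1536-well plates, 5 days after pin-tool dosing the day after seeding with one drug alone or a fixed anchor-drug dose plus five library-drug doses (not always all listed) in √10 steps.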
# AT9283 + Decitabine = compound: O=C(Nc1c[nH]nc1-c1nc2ccc(CN3CCOCC3)cc2[nH]1)NC1CC1 [AT9283] + Nc1ncn([C@H]2C[C@H](O)[C@@H](CO)O2)c(=O)n1 [Decitabine] (partner 2 µM)
# How it was run: as §1
# AT9283 + Luminespib = compound: O=C(Nc1c[nH]nc1-c1nc2ccc(CN3CCOCC3)cc2[nH]1)NC1CC1 [AT9283] + CCNC(=O)c1noc(-c2cc(C(C)C)c(O)cc2O)c1-c1ccc(CN2CCOCC2)cc1 [Luminespib] (partner 0.01 µM)
# How it was run: as §1
# AT9283 + Phenformin = compound: O=C(Nc1c[nH]nc1-c1nc2ccc(CN3CCOCC3)cc2[nH]1)NC1CC1 [AT9283] + N=C(N)NC(=N)NCCc1ccccc1 [Phenformin] (partner 250 µM)
# How it was run: as §1
# Erlotinib + Foretinib = compound: C#Cc1cccc(Nc2ncnc3cc(OCCOC)c(OCCOC)cc23)c1 [Erlotinib] + COc1cc2c(Oc3ccc(NC(=O)C4(C(=O)Nc5ccc(F)cc5)CC4)cc3F)ccnc2cc1OCCCN1CCOCC1 [Foretinib] (partner 0.25 µM)
# How it was run: as §1
cell line,measurement,setting,value
NCI-H441,relative viability,Erlotinib + Decitabine; first compound 0.02 µM,0.232
same,relative viability,Erlotinib + Decitabine; first compound 0.2 µM,0.26
same,relative viability,Erlotinib + Decitabine; first compound 0.6325 µM,0.215
same,relative viability,Erlotinib + Decitabine; first compound 2 µM,0.257
same,relative viability,AT9283 + Decitabine; first compound 0.003 µM,0.245
same,relative viability,AT9283 + Decitabine; first compound 0.03 µM,0.281
same,relative viability,AT9283 + Decitabine; first compound 0.09487 µM,0.202
same,relative viability,AT9283 + Decitabine; first compound 0.3 µM,0.217
same,relative viability,AT9283 + Luminespib; first compound 0.003 µM,0.432
same,relative viability,AT9283 + Luminespib; first compound 0.03 µM,0.347
same,relative viability,AT9283 + Luminespib; first compound 0.09487 µM,0.344
same,relative viability,AT9283 + Luminespib; first compound 0.3 µM,0.263
same,relative viability,AT9283 + Phenformin; first compound 0.003 µM,0.858
same,relative viability,AT9283 + Phenformin; first compound 0.03 µM,0.853
same,relative viability,AT9283 + Phenformin; first compound 0.09487 µM,0.286
same,relative viability,AT9283 + Phenformin; first compound 0.3 µM,0.244
same,relative viability,Erlotinib + Foretinib; first compound 0.02 µM,1.01
same,relative viability,Erlotinib + Foretinib; first compound 0.2 µM,1.02
same,relative viability,Erlotinib + Foretinib; first compound 0.6325 µM,0.933
same,relative viability,Erlotinib + Foretinib; first compound 2 µM,0.883
